Data on 19 molecules can be found in patent publication US10030027B2, “Soluble guanylate cyclase stimulators” (MERCK SHARP & DOHME CORP., priority 2015, dated 2018).

In test [1] the target is sGC α1/β1 heterodimer (Homo sapiens (Human), UniProt Q02108+Q02153). Description: Cell-based sGC functional assay (cyclic GMP assay for sGC activator: CASA assay). The arrangement: % Activation: concentration or dose not given beside the values. Conditions: CHO-K1/sGC cells; for Emax: CHO-K1, activity expressed as percentage of compound A (standard), read-out: % Activation; for EC50: inflection point, 4P fit, read-out: IP; for % Activation: activity expressed as percentage of compound A (standard). A digest of the protocol: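 CHO-K1 cells stably expressing sGC α1/β1 were pre-incubated with or without 1 μM DETA-NO (30 min, 25 °C), then exposed to compounds for 1 hr at 37 °C with 0.5 mM IBMX. Intracellular cGMP was read by HTRF and expressed as a percentage of a reference heme-dependent activator's maximum.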

Test [2] has as its target human recombinant sGC enzyme (Homo sapiens (Human), UniProt Q02108+Q02153). Description: Size Exclusion Chromatography (SEC) competition binding assay using [3H] Ex-77B as the radioligand. The settings on record: [3H] Ex-77B radioligand, 24 hours at 37° C. A digest of the protocol:
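Recombinant human sGC binding measured by competition against tritiated Ex-77B radioligand, with non-specific binding defined by 1 μM unlabeled Ex-77B.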
Background: SEC sorts molecules by how far they enter the pores of the column.

Turning to `CC1(c2ccc(/C=C/C(=O)O)cc2)C(=O)Nc2nc(-c3nn(CCC(F)(F)C(F)(F)F)c4cc(Cl)ccc34)nc(N)c21` (stereo not drawn) [Example 157A, (2E)-3-(4-{4-amino-2-[6-chloro-1-(3,3,4,4,4-penta-fluorobutyl)-1H-indazol-3-yl]-5-methyl-6-oxo-6,7-dihydro-5H-pyrrolo[2,3-d]pyrimidin-5-yl}phenyl)prop-2-enoic acid], in test [1], the Emax was 143% and the EC50 is 185 nM. In test [2], the Ki is 0.258 nM.
For the molecule `CC(C)(Cn1cc(C2(C)C(=O)Nc3nc(-c4nn(CCC(F)(F)C(F)(F)F)c5ncccc45)nc(N)c32)cn1)C(=O)O` (stereo not drawn) [Example 144A, 3-(4-{4-amino-5-methyl-6-oxo-2-[1-(3,3,4,4,4-pentafluorobutyl)-1H-pyrazolo[3,4-b]pyridin-3-yl]-6,7-dihydro-5H-pyrrolo [2,3-d]pyrimidin-5-yl}-1H-pyrazol-1-yl)-2,2-dimethyl-propanoic acid], in test [1], the Emax came to 93.1% and the EC50 was found to be 1220 nM. In test [2], the Ki worked out at 0.594 nM.
On the same counts, the results for `CC(C)(Cc1coc(C2(C)C(=O)Nc3nc(-c4nn(CC5CCCCC5)c5cc(Cl)ccc45)nc(N)c32)n1)C(=O)O` (stereo not drawn) [Example 159A, 3-(2-{4-amino-2-[6-chloro-1-(cyclohexylmethyl)-1H-indazol-3-yl]-5-methyl-6-oxo-6,7-dihydro-5H-pyrrolo[2,3-d]pyrimidin-5-yl}-1,3-oxazol-4-yl)-2,2-dimethyl-propanoic acid] are 113%, 221 nM and 0.125 nM.
On the same counts, the results for `CC(C)(Cc1coc(C2(C3CC3)C(=O)Nc3nc(-c4nn(Cc5ccccc5F)c5cc(Cl)ccc45)nc(N)c32)n1)C(=O)O` (stereo not drawn) [Example 138B, 3-(2-{4-amino-2-[6-chloro-1-(2-fluorobenzyl)-1H-indazol-3-yl]-5-cyclopropyl-6-oxo-6,7-dihydro-5H-pyrrolo[2,3-d]pyrimidin-5-yl}-1,3-oxazol-4-yl)-2,2-dimethylpropanoic acid] are 114%, 375 nM and 0.058 nM.
For the molecule `CC(C)(Cc1coc(C2(C)C(=O)Nc3nc(-c4nn(CC5CCCCC5)c5ncccc45)nc(N)c32)n1)C(=O)O` (stereo not drawn) [Example 152A, 3-(2-{4-amino-2-[1-(cyclohexyl-methyl)-1H-pyrazolo[3,4-b]pyridin-3-yl]-5-methyl-6-oxo-6,7-dihydro-5H-pyrrolo[2,3-d]pyrimidin-5-yl}-1,3-oxazol-4-yl)-2,2-dimethyl-propanoic acid], in test [1], the Emax turned out to be 118% and the EC50 stood at 120 nM. Also, the Ki in test [2] amounted to 0.031 nM.
`CC1(c2nc(-c3cccc(C(=O)O)c3)cs2)C(=O)Nc2nc(-c3nn(CCC(F)(F)C(F)(F)F)c4cc(Cl)ccc34)nc(N)c21` (stereo not drawn) [Example 93A, 3-(2-{4-amino-2-[6-chloro-1-(3,3,4,4,4-pentafluorobutyl)-1H-indazol-3-yl]-5-methyl-6-oxo-6,7-dihydro-5H-pyrrolo[2,3-d]pyrimidin-5-yl}-1,3-thiazol-4-yl)benzoic acid]: in test [1], the Emax was found to be 63% and the EC50 was found to be 575 nM. Besides, in test [2], the Ki is 0.602 nM.
For `CC1(c2ccc(CCC(=O)O)c(C#N)c2)C(=O)Nc2nc(-c3nn(CCC(F)(F)C(F)(F)F)c4cc(Cl)ccc34)nc(N)c21` (stereo not drawn) [Example 120B, 3-(4-{4-Amino-2-[6-chloro-1-(3,3,4,4,4-pentafluorobutyl)-1H-indazol-3-yl]-5-methyl-6-oxo-6,7-dihydro-5H-pyrrolo[2,3-d]pyrimidin-5-yl}-2-cyanophenyl)propanoic acid], in test [1], the Emax is 127% and the EC50 is 1930 nM. Besides, in test [2], the Ki turned out to be 0.41 nM.
On the same counts, the results for `Cc1cccc(Cn2nc(-c3nc(N)c4c(n3)NC(=O)C4(C)c3nc(CC(C)(C)C(=O)O)co3)c3ccccc32)c1F` (stereo not drawn) [Example 233A, 3-(2-{4-amino-2-[1-(2-fluoro-3-methylbenzyl)-1H-indazol-3-yl]-5-methyl-6-oxo-6,7-dihydro-5H-pyrrolo[2,3-d]pyrimidin-5-yl}-1,3-oxazol-4-yl)-2,2-dimethyl-propanoic acid] are 141%, 204 nM and 0.083 nM.
On the same counts, the results for `CC(C)(CCc1csc(C2(C)C(=O)Nc3nc(-c4nn(Cc5ccccc5F)c5ccccc45)nc(N)c32)n1)C(=O)O` (stereo not drawn) [Example 204A, 4-(2-{4-amino-2-[1-(2-fluorobenzyl)-1H-indazol-3-yl]-5-methyl-6-oxo-6,7-dihydro-5H-pyrrolo[2,3-d]pyrimidin-5-yl}-1,3-thiazol-4-yl)-2,2-dimethyl-butanoic acid] are 97.8%, 47 nM and 0.269 nM.
On the same counts, the results for `CC1(c2nc(-c3ccc(C(=O)O)cc3)cs2)C(=O)Nc2nc(-c3nn(CCC(F)(F)C(F)(F)F)c4cc(Cl)ccc34)nc(N)c21` (stereo not drawn) [Example 156A, 4-(2-{4-amino-2-[6-chloro-1-(3,3,4,4,4-penta-fluorobutyl)-1H-indazol-3-yl]-5-methyl-6-oxo-6,7-dihydro-5H-pyrrolo[2,3-d]pyrimidin-5-yl}-1,3-thiazol-4-yl)benzoic acid] are 93.5%, 161 nM and 0.17 nM.
As for `Cc1ccc2c(-c3nc(N)c4c(n3)NC(=O)[C@@]4(C)c3ccc(CCC(=O)O)cc3)nn(CCCC(F)(F)F)c2n1` [Example 20B, (S)-3-(4-{4-amino-5-methyl-2-[6-methyl-1-(4,4,4-trifluorobutyl)-1H-pyrazolo[3,4-b]pyridin-3-yl]-6-oxo-6,7-dihydro-5H-pyrrolo[2,3-d]pyrimidin-5-yl}phenyl)propanoic acid], in test [1], the Emax was 88% and the EC50 amounted to 2210 nM. In test [2], the Ki worked out at 4.49 nM.
On to `CCCCn1nc(-c2nc(N)c3c(n2)NC(=O)C3(C)c2cn(CCC(=O)O)nn2)c2ccc(Cl)cc21` (stereo not drawn) [Example 36B, 3-{4-[4-amino-2-(1-butyl-6-chloro-1H-indazol-3-yl)-5-methyl-6-oxo-6,7-dihydro-5H-pyrrolo[2,3-d]pyrimidin-5-yl]-1H-1,2,3-triazol-1-yl}propanoic acid], for which, in test [1], the Emax turned out to be 105% and the EC50 was 916 nM. In test [2], the inhibition constant Ki was 0.908 nM.
In the case of `CC(C)(Cc1csc([C@]2(C)C(=O)Nc3nc(-c4nn(Cc5c(F)ccc(F)c5F)c5cc(Cl)ccc45)nc(N)c32)n1)C(=O)O` [Example 190A, (S)-3-(2-{4-amino-2-[6-chloro-1-(2,3,6-trifluoro-benzyl)-1H-indazol-3-yl]-5-methyl-6-oxo-6,7-dihydro-5H-pyrrolo[2,3-d]pyrimidin-5-yl}-1,3-thiazol-4-yl)-2,2-dimethyl-propanoic acid], in test [1], the Emax was 120% and the EC50 amounted to 49 nM. For the same molecule, the Ki in test [2] was found to be 0.031 nM.
As for `C[C@@]1(c2ccc(CCC(=O)O)cc2)C(=O)Nc2nc(-c3nn(Cc4ccccc4F)c4ncc(F)cc34)nc(N)c21` [Example 23B, (S)-3-(4-{4-amino-2-[5-fluoro-1-(2-fluorobenzyl)-1H-pyrazolo[3,4-b]pyridin-3-yl]-5-methyl-6-oxo-6,7-dihydro-5H-pyrrolo[2,3-d]pyrimidin-5-yl}phenyl)propanoic acid], in test [1], the Emax was 109% and the EC50 came to 203 nM. For the same molecule, in test [2], the Ki was 0.099 nM.
On the same counts, the results for `CC(C)(Cc1coc(C2(C3CC3)C(=O)Nc3nc(-c4nn(Cc5ccccc5F)c5cc(F)ccc45)nc(N)c32)n1)C(=O)O` (stereo not drawn) [Example 139B, 3-(2-{4-amino-5-cyclopropyl-2-[6-fluoro-1-(2-fluorobenzyl)-1H-indazol-3-yl]-6-oxo-6,7-dihydro-5H-pyrrolo[2,3-d]pyrimidin-5-yl}-1,3-oxazol-4-yl)-2,2-dimethylpropanoic acid] are 135%, 3460 nM and 0.114 nM.
As for `CC(C)(Cc1csc([C@]2(C)C(=O)Nc3nc(-c4nn(CC5CCCCO5)c5ccccc45)nc(N)c32)n1)C(=O)O` (single isomer, unassigned) [Example 229AB], in test [1], the “% Activation” value came out at 72.9% and the EC50 was found to be 179 nM. Further, the Ki in test [2] amounted to 0.238 nM.
`CC(C)(C)CCn1nc(-c2nc(N)c3c(n2)NC(=O)[C@@]3(C)c2ccc(CCC(=O)O)cc2)c2cccnc21` [Example 210B, (S)-3-(4-{4-amino-2-[1-(3,3-dimethylbutyl)-1H-pyrazolo[3,4-b]pyridin-3-yl]-5-methyl-6-oxo-6,7-dihydro-5H-pyrrolo[2,3-d]pyrimidin-5-yl}phenyl)propanoic acid]: in test [1], the Emax stood at 103% and the EC50 worked out at 2020 nM. Further, in test [2], the Ki is 0.341 nM.
Regarding `CCCCn1nc(-c2nc(N)c3c(n2)NC(=O)C3(C)c2cn(CC(=O)O)nn2)c2ccc(Cl)cc21` (stereo not drawn) [Example 35B, 2-{4-[4-amino-2-(1-butyl-6-chloro-1H-indazol-3-yl)-5-methyl-6-oxo-6,7-dihydro-5H-pyrrolo[2,3-d]pyrimidin-5-yl]-1H-1,2,3-triazol-1-yl}acetic acid], in test [1], the Emax worked out at 102% and the EC50 worked out at 2790 nM. For the same molecule, in test [2], the Ki stood at 1.12 nM.
Consider `CC1CCC(Cn2nc(-c3nc(N)c4c(n3)NC(=O)C4(C)c3nc(CC(C)(C)C(=O)O)co3)c3ccc(Cl)cc32)CC1` (single isomer, unassigned) [Example 132AB, 3-{2-[4-amino-2-{6-chloro-1-[4-methylcyclohexylmethyl]-1H-indazol-3-yl}-5-methyl-6-oxo-6,7-dihydro-5H-pyrrolo[2,3-d]pyrimidin-5-yl]-1,3-oxazol-4-yl}-2,2-dimethylpropanoic acid], for which, in test [1], the “% Activation” value is 109.2% and the EC50 came to 89 nM. Besides, the Ki in test [2] was found to be 0.074 nM.

In general, Ki refers to a measure of affinity in units of concentration, obtained from inhibition or displacement.
